Laboratory results: patent US20220152214A1, “CANCER TREATMENT WITH ROR1 ANTIBODY IMMUNOCONJUGATES” (VelosBio Inc., priority 2019, published 2022)
Where a SMILES comes first, the peptide text is derived from it. [ ]: non-standard residue; d: D form. The star is where a group is joined. Dolaproine = CO[C@@H]([C@@H]1CCCN1)[C@@H](C)C(=O)O; Dil = CC[C@H](C)[C@H](NC)[C@@H](CC(=O)O)OC; X1 = C[C@@H](N*)[C@@H](O)c1ccccc1; NMeV = CN[C@H](C(=O)O)C(C)C

Test: Plasma pharmacokinetics of total antibody, total ADC-A and MMAE after ADC-A IV infusion
Format: in vivo, human
Design: Cmax/Dose / AUClast/Dose: unit not given beside the values
Conditions: plasma analyte = label
Protocol: The following describes a protocol for evaluating the safety, pharmacokinetics, pharmacodynamics, immunogenicity, and efficacy of a ROR1 immunoconjugate (ADC-A) across a range of dose levels when administered to subjects with previously treated relapsed or refractory CLL/SLL, MCL, FL, MZL, DLBCL, RTL, BL, LPL/WM, T cell NHL, ALL, or AML. ADC-A is administered intravenously (IV) in repeated 3-week cycles with a drug infusion on Day 1 of each cycle (Q1/3W [Schedule 1]); in repeated 3-week cycles with drug infusions on Days 1 and 8 of each cycle (Q2/3W [Schedule 2]); or in repeated 4-week cycles with drug infusions on Days 1, 8, and 15 of each cycle (Q3/4W [Schedule 3]) over a planned infusion time of ˜30 minutes. Infusion times may be extended as necessary to accommodate individual subject tolerance of treatment.

[1] = after ADC-A 0.5 mg/kg IV Q1/3W (n = 1)
[2] = after ADC-A 1.0 mg/kg IV Q1/3W (n = 3)
[3] = after ADC-A 1.5 mg/kg IV Q1/3W (n = 3)
[4] = after ADC-A 2.25 mg/kg IV Q1/3W (n = 9)
[5] = after ADC-A 2.5 mg/kg IV Q1/3W (n = 4)

CC[C@H](C)[C@@H]([C@@H](CC(=O)N1CCC[C@H]1[C@H](OC)[C@@H](C)C(=O)N[C@H](C)[C@@H](O)c1ccccc1)OC)N(C)C(=O)[C@@H](NC(=O)[C@@H](NC)C(C)C)C(C)C [MMAE, monomethyl auristatin E] (H-[NMeV]V[Dil][Dolaproine]-X1)
Increases in Cmax and AUC with dose (ADC-A 0.5 to 2.5 mg/kg IV Q1/3W): somewhat less than dose-proportional
AUClast [1]: 271 ng·h/mL
AUClast/Dose [1]: 0.5420
Cmax [1]: 1.15 ng/mL
Cmax/Dose [1]: 0.0023
Tmax [1]: 48 h
AUClast [2]: 467 ng·h/mL
AUClast/Dose [2]: 0.4673
Cmax [2]: 2.66 ng/mL
Cmax/Dose [2]: 0.0027
Tmax [2]: 48 h
AUClast [3]: 390 ng·h/mL
AUClast/Dose [3]: 0.2600
Cmax [3]: 1.66 ng/mL
Cmax/Dose [3]: 0.0011
Tmax [3]: 88.7 h
AUClast [4]: 698 ng·h/mL
AUClast/Dose [4]: 0.3102
Cmax [4]: 4.43 ng/mL
Cmax/Dose [4]: 0.0020
Tmax [4]: 75.1 h
AUClast [5]: 994.8 ng·h/mL
AUClast/Dose [5]: 0.3979
Cmax [5]: 6.7 ng/mL
Cmax/Dose [5]: 0.0027
Tmax [5]: 78.5 h
